# Key:
# [1] = tested on: RAMOS (positive expression of Brutons tyrosine protein kinase); experiment: In vitro growth inhibition (GI50), RAMOS; assay type: cell-based; settings: Homo sapiens, Cell lines of leukemia, read-out: GI 50 Ramos BTK
# [2] = tested on: MOLM-13 (FLT3 ITD+/− mutant type); experiment: In vitro growth inhibition (GI50), MOLM-13; assay type: cell-based, human; settings: Homo sapiens, MOLM-13; Cell lines of leukemia; read-out: GI 50 MOLM-13 FLT3 (ITD+/−)
# [3] = tested on: U937 (FLT3 wild-type); experiment: In vitro growth inhibition (GI50), U937; assay type: cell-based; settings: Homo sapiens, U-937; Cell lines of leukemia; read-out: GI 50 U937 FLT 3(WT)
# [4] = tested on: HL-60 (FLT3 wild type); experiment: In vitro growth inhibition (GI50), HL-60; assay type: cell-based; settings: Homo sapiens, Cell lines of leukemia, read-out: GI 50 HL60 FLT3 (WT)
# Outline: (§1)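 Cells in RPMI1640 with 10% FBS, seeded at 5–10×10^4 cells/mL, exposed next day to compound at 5,000 nM down to 0.01 nM (2- or 10-fold dilutions, ≤1% solvent) for 3–5 days at 37 °C. CCK8 absorbance at 450 nm, growth rate relative to pre-treatment and solvent controls, GI50 from concentration–growth curve.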
# [5] = tested on: Kasumi-1 (c-Kit N822K mutant type); experiment: In vitro growth inhibition (GI50), Kasumi-1; assay type: cell-based; settings: Homo sapiens, Cell lines of leukemia, read-out: GI 50 Kasumi-1 Kit (N822K)
# Outline: as §1
# [6] = tested on: MV4-11 (FLT3 ITD+/+ mutant type); experiment: In vitro growth inhibition (GI50), MV4-11; assay type: cell-based, human; settings: Homo sapiens, MV4-11; Cell lines of leukemia; read-out: GI 50 MV4-11 FLT3 (ITD +/+)
# [7] = tested on: K562 (FLT3 negative expression, positive expression of BCR-ABL fusion protein); experiment: In vitro growth inhibition (GI50), K562; assay type: cell-based; settings: Homo sapiens, Cell lines of leukemia, read-out: GI 50 K562 BCR-ABL
# [8] = tested on: KG-1 (expressing FGFR1OP2-FGFR1 fusion protein); experiment: In vitro growth inhibition (GI50), KG-1; assay type: cell-based; settings: Homo sapiens; Cell lines of leukemia; read-out: GI 50 KG-1 FGFR1OP 2-FGFR1
# [9] = tested on: OCI-AML3 (NPMc+ mutant type); experiment: In vitro growth inhibition (GI50), OCI-AML3; assay type: cell-based; settings: Homo sapiens, OCI-AML-3; Cell lines of leukemia; read-out: GI 50 OCI- AML3 NPMc+
# [10] = tested on: RS4; 11 (FLT3 wild type); experiment: In vitro growth inhibition (GI50), RS4; 11; assay type: cell-based, human; settings: Homo sapiens, RS4-11; Cell lines of leukemia; read-out: GI 50 RS4: 11 FLT3 (WT)
Structure (SMILES),GI50 [1] [nM],GI50 [2] [nM],GI50 [3] [nM],GI50 [4] [nM],GI50 [6] [nM],GI50 [7] [nM],GI50 [9] [nM],GI50 [10] [nM],GI50 [5] [nM],GI50 [8] [nM]
"CNC(=O)c1cc(Oc2ccc3c(c2)ncn3-c2ccc(NC(=O)Nc3cc(C(C)(C)C)n[nH]3)cc2)ccn1 [Compound 96, 4-(1-{4-[3-(5-tert-butyl-2H-pyrazol-3-yl)-carbamido]-phenyl}-1H-benzimidazol-5-yloxy)-pyridin-2-carboxymethylamine]",> 1000,1 to 10,> 1000,> 1000,1 to 10,> 1000,> 1000,> 1000,> 1000,> 1000
"CC(C)(C)c1cc(NC(=O)Nc2ccc(-n3cnc4cc(OCC5CCCO5)ccc43)cc2)no1 (stereo not drawn) [Compound 10, 1-(5-tert-butyl-isoxazol-3-yl)-3-{4-[5-(tetrahydrofuran-2-ylmethoxy)-benzimidazol-1-yl]-phenyl}-urea]",> 1000,0.1 to 1,> 1000,> 1000,0.1 to 1,> 1000,> 1000,> 1000,> 1000,> 1000
"CCOC(=O)COc1ccc2c(c1)ncn2-c1ccc(NC(=O)n2nc(C(C)(C)C)cc2N)cc1 [Compound 124, ethyl (1-{4-[(5-amino-3-tert-butyl-pyrazol-1-carbonyl)-amino]-phenyl}-1H-benzimidazol-5-yloxy)-acetate]",> 1000,> 1000,> 1000,> 1000,> 1000,> 1000,100 to 1000,> 1000,> 1000,> 1000
"CN(C)c1ncnc2ncn(-c3ccc(NC(=O)Nc4cc(C(C)(C)C)on4)cc3)c12 [Compound 59, 1-(5-tert-butyl-isoxazol-3-yl)-3-[4-(6-dimethylamino-purin-7-yl)-phenyl]-urea]",> 1000,1 to 10,> 1000,> 1000,1 to 10,100 to 1000,> 1000,100 to 1000,> 1000,100 to 1000
"Cc1noc(NC(=O)Nc2ccc(-n3cnc4ccccc43)cc2)c1C [Compound 131, 1-(4-benzimidazol-1-yl-phenyl)-3-(3,4-dimethyl-isoxazol-5-yl)-urea]",> 1000,100 to 1000,> 1000,> 1000,100 to 1000,> 1000,> 1000,> 1000,> 1000,> 1000
"COc1ccc2c(c1)ncn2-c1ccc(NC(=O)Nc2cc(C(C)(C)C)on2)cc1 [Compound 5, 1-(5-tert-butyl-isoxazol-3-yl)-3-[4-(5-methoxyl-benzimidazol-1-yl)-phenyl]-urea]",> 1000,0.1 to 1,> 1000,> 1000,0.1 to 1,> 1000,> 1000,> 1000,> 1000,> 1000
"Cc1cc(F)cc2ncn(-c3ccc(NC(=O)Nc4cc(C(C)(C)C)n[nH]4)cc3)c12 [Compound 97, 1-(5-tert-butyl-2H-pyrazol-3-yl)-3-[4-(5-fluoro-7-methyl-benzimidazol-1-yl)-phenyl]-urea]",> 1000,1 to 10,> 1000,> 1000,1 to 10,> 1000,> 1000,> 1000,> 1000,> 1000
"CC(C)(C)c1cc(NC(=O)Nc2cc(F)c(-n3cnc4ccccc43)c(F)c2)no1 [Compound 40, 1-(4-benzimidazol-1-yl-3,5-difluoro-phenyl)-3-(5-tert-butyl-isoxazol-3-yl)-urea]",> 1000,100 to 1000,> 1000,> 1000,100 to 1000,> 1000,> 1000,> 1000,> 1000,> 1000
"CC(C)(C)c1cc(NC(=O)Nc2cnc(-n3cnc4ccccc43)nc2)no1 [Compound 43, 1-(2-benzimidazol-1-yl-pyrimidin-5-yl)-3-(5-tert-butyl-isoxazol-3-yl)-urea]",> 1000,10 to 100,> 1000,> 1000,10 to 100,> 1000,> 1000,> 1000,> 1000,> 1000
"CC(C)(C)c1cc(NC(=O)Nc2ccc(-n3cnc4ncccc43)cc2)no1 [Compound 56, 1-(5-tert-butyl-isoxazol-3-yl)-3-(4-imidazo[4,5-b]pyridin-1-yl-phenyl)-urea]",> 1000,10 to 100,> 1000,> 1000,10 to 100,> 1000,> 1000,> 1000,> 1000,100 to 1000

# Further lines, with some results ahead:
GI50 [1] [nM],GI50 [2] [nM],GI50 [3] [nM],GI50 [4] [nM],GI50 [6] [nM],GI50 [7] [nM],GI50 [9] [nM],GI50 [10] [nM],Structure (SMILES),GI50 [5] [nM],GI50 [8] [nM]
> 1000,100 to 1000,> 1000,> 1000,100 to 1000,> 1000,> 1000,> 1000,"O=C(Nc1ccc(-n2cnc3ccccc32)cc1)Nc1cc(-c2ccccc2)[nH]n1 [Compound 65, 1-(4-benzimidazol-1-yl-phenyl)-3-(5-phenyl-1H-pyrazol-3-yl)-urea]",> 1000,> 1000
> 1000,10 to 100,> 1000,> 1000,10 to 100,> 1000,> 1000,> 1000,"CC(C)(C)c1cc(NC(=O)Nc2ccc(-n3cnc4ccccc43)cc2)n(-c2ccc(OC(F)(F)F)cc2)n1 [Compound 107, 1-(4-benzimidazol-1-yl-phenyl)-3-[5-tert-butyl-2-(4-trifluoromethoxy-phenyl)-2H-pyrazol-3-yl]-urea]",> 1000,> 1000
> 1000,1 to 10,> 1000,> 1000,1 to 10,> 1000,> 1000,> 1000,"CC(C)(C)c1nnc(NC(=O)Nc2ccc(-n3cnc4ccccc43)cc2)s1 [Compound 63, 1-(4-benzimidazol-1-yl-phenyl)-3-(5-tert-butyl-[1,3,4]thiadiazole-2-yl)-urea]",> 1000,> 1000
> 1000,0.1 to 1,> 1000,> 1000,0.1 to 1,> 1000,> 1000,> 1000,"CCOc1ccc2c(c1)ncn2-c1ccc(NC(=O)Nc2cc(C(C)(C)C)n[nH]2)cc1 [Compound 72, 1-(5-tert-butyl-2H-pyrazol-3-yl)-3-[4-(5-ethoxyl-benzimidazol-1-yl)-phenyl]-urea]",> 1000,> 1000
> 1000,> 1000,> 1000,> 1000,> 1000,> 1000,> 1000,> 1000,"Cc1csc(NC(=O)Nc2ccc(-n3cnc4ccccc43)cc2)n1 [Compound 61, 1-(4-benzimidazol-1-yl-phenyl)-3-(4-methyl-thiazol-2-yl)-urea]",> 1000,> 1000

# Source: patent US10647680B2, “Urea compound, preparation method therefor and medical use thereof” (Ancureall Pharmaceutical (Shanghai) Co., Ltd., priority 2016, dated 2020)
